In article PMC6964649, “Light-controllable dithienylethene-modified cyclic peptides: photoswitching the in vivo toxicity in zebrafish embryos” (Beilstein Journal of Organic Chemistry, 2020):
Starred links: 1 amine or outer side, 2 acyl side, 3 side chain; linkers in the order of their positions; H or OH if unused. Positions of bridges follow the written chain, without caps; N, C: chain ends. Non-standard residues stand in square brackets, D forms with d. Residues, ends and D or L forms follow the SMILES beside them. X2 = Cc1sc(C(=O)[C@@H]2CCCN2[*:2])cc1C1=C(c2cc(C(=O)[*:1])sc2C)CCC1; Leu(3R-OH) = CC(C)[C@@H](O)[C@H](N)C(=O)O; X1 = CCCCN([C@@H](CC(C)C)C(=O)[*:2])[*:1]; Orn = NCCC[C@H](N)C(=O)O

How the values were obtained:
D. rerio embryos [1] = experiment: D. rerio embryotoxicity "photoactivation" assay (ring-closed photoform in darkness, then in situ photoconversion); format: in vivo, Danio rerio; conditions: for LD50 (opened)^1h / LD50 (opened)^24h: after 24 h with ring-closed form in dark, in situ illumination 10 min, λ = 570 nm, approx. 20 mW/cm^2; for LD50 (opened)^1h: mortality 1 h after illumination, embryos 4 dpf; for LD50 (opened)^1h / LD50 (opened)^24h / LD50 (closed)^24h: value ± STD; for LD50 (opened)^24h: mortality 24 h after illumination, embryos 5 dpf at readout; for LD50(closed)^24h/LD50(open)^24h ratio: phototherapeutic safety window, ring-closed 24 h LD50 (dark) divided by ring-open 24 h LD50 (direct application); for LD50 (closed)^24h: ring-closed photoform applied to embryos at 3 dpf, 24 h in the dark, sealed vials, E3 medium, 0.2% DMSO
Procedure: (§1) To establish the assay for screening the photoswitchable peptides, we first studied the toxicity of our prototype 2 by varying the assay conditions. The parent peptide GS 1 was used as a control. […] We measured the doses causing the death of 50% embryos (LD50). We tested two different assay variations: in one version, the LD50(open) was determined after direct application of 1 or of the ring-open form of 2. In the other variant, the photoswitchable peptide was applied in the ring-closed photoform in the darkness, its LD50(closed) was recorded, and then in situ illumination (“photoactivation”) was applied to switch into the ring-open photoform and obtain the respective LD50(opened) values (see Figure 2 for the study design and the killing curves).
(§2) Figure 2 Two versions of the D. rerio embryotoxicity assay for DAE-modified peptides: timelines, peptide photostates, ages of larvae, and definitions of the measured characteristics. (A) Direct application of the non-photoswitchable parent GS 1 or of the ring-open photoform of our prototype 2, and the corresponding killing curves for 1 (C, top, black) and 2 (C, bottom, red). (B) “Photoactivation” assay: initial application of the ring-closed photoform, incubation in darkness, followed by in situ photoconversion into the ring-open(ed) photoform, with the corresponding killing curves for 1 (D, top) and 2 (D, bottom, green for ring-closed, red for ring-open isomers). The latter panel illustrates the “phototherapeutic safety window” (green arrow) as the difference in toxicity between the ring-closed and the ring-open isomers upon photoactivation.
(§3) Each time, 12–15 or 18–20 zebrafish embryos at 3 dpf were treated by applying the corresponding peptide dissolved in dimethyl sulfoxide (final dimethyl sulfoxide concentration was 0.2%). Double-concentrated peptide stock solutions (64–512 µg/mL) were prepared by weighing lyophilized peptides, dissolving in 10% dimethyl sulfoxide and constructing two-fold dilution series with ten–eleven dilution steps. In the photoconversion experiments, in order to prevent spontaneous photoswitching of the ring-closed peptides by vis light, zebrafish embryos and peptides were kept in the dark before the first readout, and the vials were sealed to avoid evaporation of the embryonic medium (E3) at prolonged incubation times. After the first screen, without exchanging any solution, the vials with embryos and ring-closed photoforms were exposed to intense illumination for 10 min (LUMATEC Superlite 410 light source, λ = 570 nm, irradiance approximately 20 mW/cm^2). Mortality was then determined under ambient light conditions at 1 h and 24 h after the illumination procedure.

D. rerio embryos [2] = experiment: D. rerio embryotoxicity assay, direct application of ring-open photoform; format: in vivo, Danio rerio; conditions: direct application of 1 or ring-open photoform, zebrafish embryos at 3 dpf, final DMSO 0.2%, ambient light, value ± STD; for LD50 (open)^1h: 1 h incubation, 12–15 or 18–20 embryos; for LD50 (open)^3h: 3 h incubation; for LD50 (open)^24h: 24 h incubation
Procedure: as §1, §2, §3

[3] = observed water solubility and aggregation; format: physicochemical; conditions: ring-open form; observation in words
Source text: We have also analyzed the correlation between the empirical low-pH hydrophobicity of the peptides (as assessed from the retention times in reversed-phase HPLC) and toxicity against zebrafish embryos. Independent on the photoisomeric state and the type of toxicity assay, decreasing polarity of the peptides is accompanied by an increase in toxicity against zebrafish embryos (compare Figure 3A and 3B). Within the different series of peptides (the series are marked with different colors in Figure 3 for clarity) we get almost linear toxicity–hydrophobicity correlations in most cases, and all the outliers are readily explainable.

Which “LD50 (opened)^1h” value (D. rerio embryos [1]) does the source give for `CCCCN1C(=O)[C@@H](Cc2ccccc2)NC(=O)[C@H](CC(C)C)NC(=O)[C@H](CCCN)NC(=O)[C@H]([C@@H](C)CC)NC(=O)c2cc(c(C)s2)C2=C(CCC2)c2cc(sc2C)C(=O)[C@@H]2CCCN2C(=O)[C@H](CC(C)C)NC(=O)[C@H](CCCN)NC(=O)[C@H]([C@@H](C)CC)NC(=O)[C@@H]1CC(C)C` [Peptide 11] (I[Orn]L[dF][X1]I[Orn]L; linker N-C via X2) here?
The value was 4.0 ± 0.3 µg/mL.

And the “LD50 (opened)^24h” value (D. rerio embryos [1])?
Its value is 3.0 ± 1.0 µg/mL.

And the “LD50(closed)^24h/LD50(open)^24h ratio” value (D. rerio embryos [1])?
The value was 2.8.

What about the “LD50 (closed)^24h” value (D. rerio embryos [1]) of the same compound?
The value was 4.4 ± 0.2 µg/mL.

And the “LD50 (open)^1h” value (D. rerio embryos [2])?
Its value is 3.0 ± 1.8 µg/mL.

What about the “LD50 (open)^3h” value (D. rerio embryos [2]) of the same compound?
Its value is 2.4 ± 0.7 µg/mL.

What about the “LD50 (open)^24h” value (D. rerio embryos [2]) of the same compound?
The value was 1.6 ± 0.1 µg/mL.

And the “water solubility and aggregation” value [3]?
The value was “very low water solubility and tendency to aggregate”.

With `Cc1sc2cc1C1=C(CCC1)c1cc(sc1C)C(=O)[C@@H]1CCCN1C(=O)[C@H](C(C)C)NC(=O)[C@H](CCCN)NC(=O)[C@H]([C@H](O)C(C)C)NC(=O)[C@@H]1CCCN1C(=O)[C@@H](Cc1ccccc1)NC(=O)[C@H](C(C)C)NC(=O)[C@H](CCCN)NC(=O)[C@H]([C@H](O)C(C)C)NC2=O` [Peptide 15] ([Leu(3R-OH)][Orn]V[dF]P[Leu(3R-OH)][Orn]V; linker N-C via X2) as the compound, how does the “LD50 (opened)^1h” value (D. rerio embryos [1]) read?
Its value is 22.9 ± 0.2 µg/mL.

And the “LD50 (opened)^24h” value (D. rerio embryos [1])?
The value was 7.2 ± 0.7 µg/mL.

And the “LD50(closed)^24h/LD50(open)^24h ratio” value (D. rerio embryos [1])?
The value was 7.8.

What about the “LD50 (closed)^24h” value (D. rerio embryos [1]) of the same compound?
Its value is 56.1 ± 12.2 µg/mL.

And the “LD50 (open)^1h” value (D. rerio embryos [2])?
The value was 36.5 ± 2.1 µg/mL.

What about the “LD50 (open)^3h” value (D. rerio embryos [2]) of the same compound?
The value was 14.1 ± 6.0 µg/mL.

What about the “LD50 (open)^24h” value (D. rerio embryos [2]) of the same compound?
Its value is 7.2 ± 3.8 µg/mL.

With `Cc1sc2cc1C1=C(CCC1)c1cc(sc1C)C(=O)[C@@H]1CCCN1C(=O)[C@H](CC(C)C)NC(=O)[C@H](CCCCN)NC(=O)[C@H](C(C)C)NC(=O)[C@H](CCCCN)NC(=O)[C@H](CC(C)C)NC(=O)[C@@H]1CCCN1C(=O)[C@@H](Cc1ccccc1)NC(=O)[C@H](C(C)C)NC(=O)[C@H](CCCCN)NC(=O)[C@H](CC(C)C)NC(=O)[C@H](CCCCN)NC(=O)[C@H](C(C)C)NC2=O` [Peptide 16] (VKLKV[dF]PLKVKL; linker N-C via X2) as the compound, how does the “LD50 (opened)^1h” value (D. rerio embryos [1]) read?
The value was 5.6 ± 0.5 µg/mL.

And the “LD50 (opened)^24h” value (D. rerio embryos [1])?
Its value is 5.2 ± 0.5 µg/mL.

What about the “LD50(closed)^24h/LD50(open)^24h ratio” value (D. rerio embryos [1]) of the same compound?
Its value is 3.8.

What about the “LD50 (closed)^24h” value (D. rerio embryos [1]) of the same compound?
Its value is 6.0 ± 0.1 µg/mL.

What about the “LD50 (open)^1h” value (D. rerio embryos [2]) of the same compound?
Its value is 3.1 ± 1.0 µg/mL.

And the “LD50 (open)^3h” value (D. rerio embryos [2])?
Its value is 3.1 ± 1.0 µg/mL.

What about the “LD50 (open)^24h” value (D. rerio embryos [2]) of the same compound?
The value was 1.6 ± 0.0 µg/mL.

Which “LD50 (opened)^1h” value (D. rerio embryos [1]) does the source give for `Cc1sc2cc1C1=C(CCC1)c1cc(sc1C)C(=O)[C@@H]1CCCN1C(=O)[C@H](C(C)C)NC(=O)[C@H](CCCCN)NC(=O)[C@H](C(C)C)NC(=O)[C@@H](CCCCN)NC(=O)[C@H](CC(C)C)NC(=O)[C@@H]1CCCN1C(=O)[C@@H](Cc1ccccc1)NC(=O)[C@H](C(C)C)NC(=O)[C@H](CCCCN)NC(=O)[C@H](CC(C)C)NC(=O)[C@H](CCCCN)NC(=O)[C@H](C(C)C)NC2=O` [Peptide 17] (VKLKV[dF]PL[dK]VKV; linker N-C via X2) here?
Its value is 9.9 ± 0.1 µg/mL.

And the “LD50 (opened)^24h” value (D. rerio embryos [1])?
Its value is 9.4 ± 0.7 µg/mL.

And the “LD50(closed)^24h/LD50(open)^24h ratio” value (D. rerio embryos [1])?
The value was 3.1.

And the “LD50 (closed)^24h” value (D. rerio embryos [1])?
Its value is 9.9 ± 0.1 µg/mL.

And the “LD50 (open)^1h” value (D. rerio embryos [2])?
Its value is 10.5 ± 5.8 µg/mL.

What about the “LD50 (open)^3h” value (D. rerio embryos [2]) of the same compound?
Its value is 10.5 ± 5.8 µg/mL.

And the “LD50 (open)^24h” value (D. rerio embryos [2])?
The value was 3.2 ± 0.2 µg/mL.

For `Cc1sc2cc1C1=C(CCC1)c1cc(sc1C)C(=O)[C@@H]1CCCN1C(=O)[C@H](C(C)C)NC(=O)[C@H](CCCCN)NC(=O)[C@H](C(C)C)NC(=O)[C@H](CC(C)C)NC(=O)[C@H](CCCCN)NC(=O)[C@@H]1CCCN1C(=O)[C@@H](Cc1ccccc1)NC(=O)[C@H](C(C)C)NC(=O)[C@H](CCCCN)NC(=O)[C@H](CC(C)C)NC(=O)[C@H](CCCCN)NC(=O)[C@H](C(C)C)NC2=O` [Peptide 18] (VKLKV[dF]PKLVKV; linker N-C via X2), which “LD50 (opened)^1h” value (D. rerio embryos [1]) is on record?
The value was 12.3 ± 1.5 µg/mL.

And the “LD50 (opened)^24h” value (D. rerio embryos [1])?
Its value is 12.3 ± 1.5 µg/mL.

And the “LD50(closed)^24h/LD50(open)^24h ratio” value (D. rerio embryos [1])?
Its value is 30.8.

And the “LD50 (closed)^24h” value (D. rerio embryos [1])?
Its value is 12.3 ± 1.5 µg/mL.

And the “LD50 (open)^1h” value (D. rerio embryos [2])?
The value was 0.9 ± 0.4 µg/mL.

And the “LD50 (open)^3h” value (D. rerio embryos [2])?
The value was 0.9 ± 0.4 µg/mL.

And the “LD50 (open)^24h” value (D. rerio embryos [2])?
The value was 0.4 ± 0.2 µg/mL.

For “DAE-OrnN3-OLfPVOL (bicyclic or more) [Peptide 20, "click"-chemistry connected homodimer of DAE-modified macrocycle (series v)]”, which “LD50 (opened)^1h” value (D. rerio embryos [1]) is on record?
The value was 8.4 ± 3.3 µg/mL.

What about the “LD50 (opened)^24h” value (D. rerio embryos [1]) of the same compound?
The value was 3.5 ± 0.6 µg/mL.

And the “LD50(closed)^24h/LD50(open)^24h ratio” value (D. rerio embryos [1])?
Its value is 7.1.

What about the “LD50 (closed)^24h” value (D. rerio embryos [1]) of the same compound?
The value was 10.7 ± 0.1 µg/mL.

And the “LD50 (open)^1h” value (D. rerio embryos [2])?
Its value is 3.7 ± 1.9 µg/mL.

And the “LD50 (open)^3h” value (D. rerio embryos [2])?
Its value is 3.7 ± 1.9 µg/mL.

What about the “LD50 (open)^24h” value (D. rerio embryos [2]) of the same compound?
The value was 1.5 ± 0.0 µg/mL.
